Test results published in patent publication US9334276B2, “Forms and salts of a dihydropyrrolo[1,2c]imidazolyl aldosterone synthase or aromatase inhibitor” (Novartis AG, priority 2012, dated 2016).
Where two headings read alike, the source gives them in different places.

Assays:
[1] = Hygroscopicity: sorption/desorption isotherms, VTI 100 humidity microbalance; assay type: physicochemical; settings: for Moisture gain (water uptake): 25° C.
Experimental: Sorption/desorption isotherms were measured using the VTI 100 humidity microbalance (VTI Corporation, Hialeah, Fla., USA). Measurements were carried out at 25° C. Samples were dried under N2 flow at 25° C.

[2] = Determination of solubility (excess solids equilibrated over 24 hours at 25° C.); assay type: physicochemical; settings: thermodynamic from solid
Experimental: Excess solids were equilibrated in each solvent for over 24 hours at 25° C.±0.1. Concentration in supernatant was measured by gravimetry for organic solvents and by HPLC from aqueous solvents and propylene glycol.

Compound	Moisture gain (water uptake) ([1]; 0% r.h.) [%]	Moisture gain (water uptake) ([1]; 5% r.h., listed as Phosphate) [%]	Moisture gain (water uptake) ([1]; 5% r.h., listed as phosphate salt) [%]	Moisture gain (water uptake) ([1]; 25% r.h.) [%]	Moisture gain (water uptake) ([1]; 50% r.h.) [%]	Moisture gain (water uptake) ([1]; 75% r.h., listed as Phosphate) [%]	Moisture gain (water uptake) ([1]; 75% r.h., listed as phosphate salt) [%]	Moisture gain (water uptake) ([1]; 85% r.h.) [%]	Moisture gain (water uptake) ([1]; 95% r.h.) [%]	solubility ([2]; organic solvent or mixture, Ethyl Acetate, read-out: Solubility profile) [mg/mL]	solubility ([2]; simulated gastric fluid, pH 1, read-out: Solubility profile) [mg/mL]	Moisture gain (water uptake) ([1]; 5% r.h.) [%]	Moisture gain (water uptake) ([1]; 75% r.h.) [%]	Moisture gain (water uptake) ([1]; 5% r.h., listed as Nitrate) [%]	Hygroscopicity (in words) ([1]; in contrast to the phosphate and nitrate salts)
N#Cc1ccc([C@H]2CCc3cncn32)c(F)c1.O=P(O)(O)O [Phosphate salt, Phosphate salt of 4-(R)-(6,7-dihydro-5H-pyrrolo[1,2-c]imidazol-5-yl)-3-fluoro-benzonitrile (Form A)]	0.0	0.0	0	0.1	0.1	0.2	0.9	0.3	0.8						
N#Cc1ccc([C@H]2CCc3cncn32)c(F)c1 [Free base, 4-(R)-(6,7-Dihydro-5H-pyrrolo[1,2-c]imidazol-5-yl)-3-fluoro-benzonitrile]	0.0			0.1	0.2			0.5	1.0	> 50	> 50	0.0	0.3		
N#Cc1ccc([C@H]2CCc3cncn32)c(F)c1.O=[N+]([O-])O [nitrate salt, Nitrate salt of 4-(R)-(6,7-dihydro-5H-pyrrolo[1,2-c]imidazol-5-yl)-3-fluoro-benzonitrile]	0.0			0.1	0.2			0.2	0.2			0	0.2	0.0	
Cl.N#Cc1ccc([C@H]2CCc3cncn32)c(F)c1 [HCl salt, HCl salt of 4-(R)-(6,7-dihydro-5H-pyrrolo[1,2-c]imidazol-5-yl)-3-fluoro-benzonitrile, reference compound]	0.0			0.5	0.2			3.3	23.6			0.0	0.2		excessive hygroscopicity
